Measurements as given in ChEMBL document CHEMBL5608199, “Quaternized antimicrobial peptide mimics based on harmane as potent anti-MRSA agents by multi-target mechanism covering cell wall, cell membrane and intracellular targets” (Eur J Med Chem, 2024).
Converted amounts (≈) assume the structure as drawn. The source made the active and inactive calls. No cut-off for these calls is given here.

Experiments:
Staphylococcus aureus [1] = assay: Antibacterial activity against methicillin-resistant Staphylococcus aureus; type: functional
Staphylococcus aureus [2] = assay: Antibacterial activity against methicillin-resistant Staphylococcus aureus ATCC 43300 incubated for 18 hrs by two fold serial broth dilution method; type: functional
Staphylococcus aureus [3] = assay: Antibacterial activity against methicillin-resistant Staphylococcus aureus CGMCC 1.12409 incubated for 18 hrs by two fold serial broth dilution method; type: functional
Staphylococcus aureus [4] = assay: Antibacterial activity against methicillin-resistant Staphylococcus aureus ATCC 33591 incubated for 18 hrs by two fold serial broth dilution method; type: functional
Staphylococcus aureus [5] = assay: Antibacterial activity against Staphylococcus aureus ATCC 29213 incubated for 18 hrs by two fold serial broth dilution method; type: functional
Staphylococcus aureus [6] = assay: Antibacterial activity against Staphylococcus aureus CMCC 26003 incubated for 18 hrs by two fold serial broth dilution method; type: functional
Escherichia coli = assay: Antibacterial activity against Escherichia coli ATCC 8739 incubated for 18 hrs by two fold serial broth dilution method; type: functional
Staphylococcus aureus [7] = assay: Antibacterial activity against methicillin-resistant Staphylococcus aureus clinical isolate M-14 incubated for 18 hrs by two fold serial broth dilution method; type: functional
Staphylococcus aureus [8] = assay: Antibacterial activity against methicillin-resistant Staphylococcus aureus clinical isolate M-15 incubated for 18 hrs by two fold serial broth dilution method; type: functional
Staphylococcus aureus [9] = assay: Antibacterial activity against methicillin-resistant Staphylococcus aureus clinical isolate M-16 incubated for 18 hrs by two fold serial broth dilution method; type: functional
Staphylococcus aureus [10] = assay: Antibacterial activity against methicillin-resistant Staphylococcus aureus clinical isolate M-17 incubated for 18 hrs by two fold serial broth dilution method; type: functional
Staphylococcus aureus [11] = assay: Antibacterial activity against methicillin-resistant Staphylococcus aureus clinical isolate M-18 incubated for 18 hrs by two fold serial broth dilution method; type: functional
Staphylococcus aureus [12] = assay: Antibacterial activity against methicillin-resistant Staphylococcus aureus clinical isolate M-19 incubated for 18 hrs by two fold serial broth dilution method; type: functional
Staphylococcus aureus [13] = assay: Antibacterial activity against methicillin-resistant Staphylococcus aureus clinical isolate M-20 incubated for 18 hrs by two fold serial broth dilution method; type: functional
Erythrocyte = assay: Hemolytic activity at sheep Red blood cells at 0.5 to 128 ug/ml; type: toxicity, cell-based, Ovis aries; conditions: dose 0.5-128 µg/ml
[14] = Hemolytic activity at sheep Red blood cells at 256 ug/ml; type: toxicity, cell-based, Ovis aries, Erythrocyte; conditions: sheep red blood cells (erythrocytes), at 256 µg/mL, read-out: Activity
[15] = Cytotoxicity against human HTR-8/SVneo cells assessed as cell viability at 0.5 ug/ml by CCK-8 assay relative to control; type: toxicity, cell-based; conditions: at 0.5 µg/mL, read-out: Activity
[16] = Cytotoxicity against human HTR-8/SVneo cells assessed as cell viability at 8 ug/ml by CCK-8 assay relative to control; type: toxicity, cell-based; conditions: at 8 µg/mL, read-out: Activity
[17] = Stability in sheep plasma assessed as increase in MIC measured after 0 to 6 hrs; type: ADME, cell-free, Ovis aries; conditions: time 0-6 hrs
Staphylococcus aureus [18] = assay: Antibacterial activity against methicillin-resistant Staphylococcus aureus ATCC 33591 assessed as inhibition of bacterial growth at 0.5 ug/ml measured after 8 hrs relative to control; type: functional
Staphylococcus aureus [19] = assay: Bacteriostatic activity against methicillin-resistant Staphylococcus aureus ATCC 33591 assessed as log reduction in viable bacterial count at 1 to 4 times MIC measured at 10 hrs by time-kill assay; type: functional
Staphylococcus aureus [20] = assay: Bactericidal activity against methicillin-resistant Staphylococcus aureus ATCC 33591 assessed as log reduction in viable bacterial count at 8 times MIC measured after 10 hrs by time-kill assay; type: functional
Staphylococcus aureus [21] = assay: Antibacterial activity against methicillin-resistant Staphylococcus aureus ATCC 33591 infected in cyclophosphamide treated female KM mouse skin infection model assessed as log reduction in bacterial load in abscess at 13.2 mg/kg administered for 4 days and measured on day 5; type: functional; conditions: time 5 day
Staphylococcus aureus [22] = assay: Antibacterial activity against methicillin-resistant Staphylococcus aureus ATCC 33591 infected in cyclophosphamide treated female KM mouse skin infection model assessed as reduction in bacterial load in abscess administered for 4 days and measured on day 5; type: functional, organism-based; conditions: dose 3.3-13.2 mg/kg, time 5.0 day
Staphylococcus aureus [23] = assay: Antibacterial activity against methicillin-resistant Staphylococcus aureus ATCC 33591 infected in cyclophosphamide treated female KM mouse skin infection model assessed as log reduction in bacterial load in abscess at 3.3 mg/kg administered for 4 days and measured on day 5; type: functional; conditions: time 5 day
Staphylococcus aureus [24] = assay: (§1) Antibacterial activity against methicillin-resistant Staphylococcus aureus ATCC 33591 infected in cyclophosphamide treated female KM mouse skin infection model assessed as reduction in number of bacterial clones in skin at 3.3 to 13.2 mg/kg administered for 4 days and measured on day 5; type: functional, organism-based; conditions: dose 3.3-13.2 mg/kg, time 5.0 day
Staphylococcus aureus [25] = assay: as §1, with “reduction in inflammatory cell infiltration at 3.3” for “reduction in number of bacterial clones in skin at 3.3”, “day 5 by H and E staining based analysis” for “day 5”; type: functional, organism-based; conditions: dose 3.3-13.2 mg/kg, time 5.0 day
Staphylococcus aureus [26] = assay: Induction of morphological changes in methicillin-resistant Staphylococcus aureus ATCC 33591 assessed as appearance of irregular cell morphology at 1 ug/ml measured after 6 hrs by SEM analysis; type: functional, organism-based; conditions: dose 1.0 µg/ml
Staphylococcus aureus [27] = assay: Induction of morphological changes in methicillin-resistant Staphylococcus aureus ATCC 33591 assessed as appearance of cracked cell morphology at 1 ug/ml measured after 6 hrs by SEM analysis; type: functional, organism-based; conditions: dose 1.0 µg/ml
Staphylococcus aureus [28] = assay: Induction of morphological changes in methicillin-resistant Staphylococcus aureus ATCC 33591 assessed as appearance of adhesive cell morphology at 1 ug/ml measured after 6 hrs by SEM analysis; type: functional, organism-based; conditions: dose 1.0 µg/ml
Staphylococcus aureus [29] = assay: Antibacterial activity against methicillin-resistant Staphylococcus aureus ATCC 33591 assessed as neutralization of negative charge in cell wall by measuring increase in surface potential; type: functional, organism-based; conditions: dose 0-256 µg/ml
Lipoteichoic acid = assay: Displacement of BODIPY-TR-cadaverine from methicillin-resistant Staphylococcus aureus ATCC 33591 lipoteichoic acid assessed as increase in fluorescence intensity; conditions: dose 0.5-4 µg/ml
Staphylococcus aureus [30] = assay: Antibacterial activity against methicillin-resistant Staphylococcus aureus ATCC 33591 assessed as inhibition of bacterial growth in presence of 0 to 128 ug/ml peptidoglycan by exogenous addition assay (reference value: 0.5 ug/ml); type: functional
Cell membrane [31] = assay: Disruption of membrane integrity in methicillin-resistant Staphylococcus aureus ATCC 33591 assessed as appearance of blue and green fluorescence at 1 ug/ml by DAPI/SYTOX Green double staining assay; type: cell membranes; conditions: dose 1.0 µg/ml
Cell membrane [32] = assay: Disruption of membrane integrity in methicillin-resistant Staphylococcus aureus ATCC 33591 assessed as increase in fluorescence intensity by PI staining based fluorescence assay; type: cell membranes; conditions: dose 0-4 µg/ml
Cell membrane [33] = assay: Disruption of membrane integrity in methicillin-resistant Staphylococcus aureus ATCC 33591 assessed as increase in protein leakage; type: cell membranes; conditions: dose 0-4 µg/ml
Cell membrane [34] = assay: Disruption of membrane integrity in methicillin-resistant Staphylococcus aureus ATCC 33591 assessed as increase in nucleic acid leakage; type: cell membranes; conditions: dose 0-4 µg/ml
Cell membrane [35] = assay: Disruption of membrane integrity in methicillin-resistant Staphylococcus aureus ATCC 33591 assessed as fold increase in nucleic acid leakage at 1 ug/ml relative to control; type: cell membranes; conditions: dose 1.0 µg/ml
Cell membrane [36] = assay: Induction of membrane depolarization in methicillin-resistant Staphylococcus aureus ATCC 33591 assessed as increase in fluorescence intensity at 1 to 4 times MIC measured after 0 to 120 mins by DiSC3(5) staining based assay; type: cell membranes; conditions: time 0-120 min
Cell membrane [37] = assay: Induction of membrane depolarization in methicillin-resistant Staphylococcus aureus ATCC 33591 assessed as increase in fluorescence intensity at 1 to 4 times MIC by DiSC3(5) staining based assay; type: cell membranes; conditions: time 0-120 min, TDE = time-dependent effect
Staphylococcus aureus [38] = assay: Antibacterial activity against methicillin-resistant Staphylococcus aureus ATCC 33591 assessed as reduction in metabolic activity by alamar blue assay; type: functional, organism-based; conditions: dose 0-4 µg/ml
Staphylococcus aureus [39] = assay: Antibacterial activity against methicillin-resistant Staphylococcus aureus ATCC 33591 assessed as reduction in LDH activity; type: functional, organism-based; conditions: dose 0-4 µg/ml
Staphylococcus aureus [40] = assay: Antibacterial activity against methicillin-resistant Staphylococcus aureus ATCC 33591 assessed as reduction in LDH activity at 4 ug/ml measured after 8 hrs relative to control; type: functional; design: scale not given: the % may be the effect or the level left; conditions: dose 4 µg/ml
Staphylococcus aureus [41] = assay: Induction of ROS generation in methicillin-resistant Staphylococcus aureus ATCC 33591 assessed as increase in ROS level; type: functional, organism-based; conditions: dose 0-4 µg/ml
Staphylococcus aureus [42] = assay: Induction of ROS generation in methicillin-resistant Staphylococcus aureus ATCC 33591 assessed as fold increase in ROS level at 0.5 ug/ml relative to control; type: functional; conditions: dose 0.5 µg/ml
Staphylococcus aureus [43] = assay: Induction of oxidative damage in methicillin-resistant Staphylococcus aureus ATCC 33591 assessed as loss of GSH activity; type: functional, organism-based; conditions: dose 0-4 µg/ml
Staphylococcus aureus [44] = assay: Induction of oxidative damage in methicillin-resistant Staphylococcus aureus ATCC 33591 assessed as reduction in SOD activity; type: functional, organism-based; conditions: dose 0-4 µg/ml
Calf thymus DNA [45] = assay: Binding affinity to calf thymus DNA assessed as reduction in fluorescence intensity at 3 x 10^-5M by fluorescence spectroscopy; type: nucleic-acid assay; conditions: Bos taurus; dose 3.0 10^-5M
Calf thymus DNA [46] = assay: Binding affinity to calf thymus DNA assessed as increase in absorption wavelength intensity at 0 to 2.4 x 10^-5M by absorption spectroscopy; type: nucleic-acid assay; conditions: Bos taurus; dose 0-2.4 10^-5M
Staphylococcus sp. = assay: Antibacterial activity against Staphylococcus sp. 772 assessed as inhibition of bacterial growth incubated for 24 hrs by microdilution method; type: functional

With `COc1ccc2c(c1)c1cc[n+](C)cc1n2CCCCCCCCn1c2ccc(OC)cc2c2cc[n+](C)cc21.[I-].[I-]` the MIC (Staphylococcus aureus [1]) was 2 µg/mL.
`Cc1c2c(cc[n+]1C)c1ccccc1n2CCCCCCCCn1c2ccccc2c2cc[n+](C)c(C)c21.[I-].[I-]` gave an MIC (Staphylococcus aureus [2]) of 2 µg/mL, an MIC (Staphylococcus aureus [3]) of 1 µg/mL and an MIC (Staphylococcus aureus [4]) of 0.5 µg/mL. It also gave an MIC (Staphylococcus aureus [5]) of 4 µg/mL, an MIC (Staphylococcus aureus [6]) of 0.5 µg/mL and an MIC (Escherichia coli) of 8 µg/mL. It also gave an MIC (Staphylococcus aureus [7]) of 1 µg/mL, an MIC (Staphylococcus aureus [8]) of 2 µg/mL and an MIC (Staphylococcus aureus [9]) of 1 µg/mL. It also gave an MIC (Staphylococcus aureus [10]) of 1 µg/mL, an MIC (Staphylococcus aureus [11]) of 2 µg/mL and an MIC (Staphylococcus aureus [12]) of 1 µg/mL. The MIC (Staphylococcus aureus [13]) was 1 µg/mL, the Activity (Erythrocyte) was “Non-Toxic” and the hemolysis at 256 ug/ml [14] was 7.71%. The viability at 0.5 ug/ml [15] was 110%, the viability at 8 ug/ml [16] was 97.8% and the Stability [17] was “Stable”. The inhibition at 0.5 µg/mL (Staphylococcus aureus [18]) was 100%, the “log(activity)” value (Staphylococcus aureus [19]) was <3 and the “log(activity)” value (Staphylococcus aureus [20]) was 3.44. For the same compound, the “log(activity)” value (Staphylococcus aureus [21]) was 4.06, the Activity (Staphylococcus aureus [22]) was “Dose-Dependent Effect” and the “log(activity)” value (Staphylococcus aureus [23]) was 1.27. The Activity (Staphylococcus aureus [24]) was “Active”, the Activity (Staphylococcus aureus [25]) was “Active” and the Activity (Staphylococcus aureus [26]) was “Active”. The Activity (Staphylococcus aureus [27]) was “Active”, the Activity (Staphylococcus aureus [28]) was “Active” and the Activity (Staphylococcus aureus [29]) was “Dose-Dependent Effect”. The Activity (Lipoteichoic acid) was “Dose-Dependent Effect”, the MIC (Staphylococcus aureus [30]) was 8 µg/mL and the Activity (Cell membrane [31]) was “Active”. For the same compound, the Activity (Cell membrane [32]) was “Dose-Dependent Effect”, the Activity (Cell membrane [33]) was “Dose-Dependent Effect” and the Activity (Cell membrane [34]) was “Dose-Dependent Effect”. For the same compound, the fold change (FC) (Cell membrane [35]) was 28, the Activity (Cell membrane [36]) was “Dose-Dependent Effect” and the Activity (Cell membrane [37]) was “Tde”. The Activity (Staphylococcus aureus [38]) was “Dose-Dependent Effect”, the Activity (Staphylococcus aureus [39]) was “Dose-Dependent Effect” and the Activity (Staphylococcus aureus [40]) was 87.21%. For the same compound, the Activity (Staphylococcus aureus [41]) was “Dose-Dependent Effect”, the “fold change (FC)” value (Staphylococcus aureus [42]) was 1.25 and the Activity (Staphylococcus aureus [43]) was “Dose-Dependent Effect”. The Activity (Staphylococcus aureus [44]) was “Dose-Dependent Effect”, the Activity (Calf thymus DNA [45]) was “Active” and the Activity (Calf thymus DNA [46]) was “Active”.
In the case of `Cc1nccc2c1[nH]c1ccccc12` [HARMAN], the MIC (Staphylococcus aureus [2]) is reported as 128 µg/mL (≈ 702 µM), the MIC (Staphylococcus aureus [3]) is reported as > 128 µg/mL and the MIC (Staphylococcus aureus [4]) is reported as 128 µg/mL (≈ 702 µM). For the same compound, the MIC (Staphylococcus aureus [5]) was 128 µg/mL (≈ 702 µM), the MIC (Staphylococcus aureus [6]) was 128 µg/mL (≈ 702 µM) and the MIC (Escherichia coli) was 8 µg/mL (≈ 43.9 µM). For the same compound, the MIC (Staphylococcus sp.) was 18 µg/mL (≈ 98.8 µM).
